The values below come from ChEMBL document CHEMBL6153109, “Switching Roles─Exploring Concentration-Dependent Agonistic versus Antagonistic Behavior of Integrin Ligands” (J Med Chem, 2025).

A word on the IC50: it is the concentration needed to halve the response being measured.

Assay [1] concerns the target T1, Integrin alpha-V/beta-3 (Homo sapiens, UniProt P05106+P06756). In words: Competitive binding affinity to human Integrin alphaVbeta3 incubated for 1 hrs in presence of vitronectin by ELISA based spectrophotometric analysis. Type of assay: protein-complex assay. (An ELISA detects its analyte on a solid surface through an enzyme-linked reagent.)
The target of assay [2] is T2, Integrin alpha-5/beta-1 (Homo sapiens, UniProt P05556+P08648). The assay is described as follows: Competitive binding affinity to human Integrin alpha5beta1 incubated for 1 hrs in presence of fibronectin by ELISA based spectrophotometric analysis. It counts as protein-complex assay.
In assay [3] the target is T3, Integrin alpha-V/beta-6 (Homo sapiens, UniProt P06756+P18564). The assay is described as follows: Competitive binding affinity to human Integrin alphaVbeta6 incubated for 1 hrs in presence of […] of TGF-beta1 by ELISA based spectrophotometric analysis. Type of assay: protein-complex assay.
The subject of assay [4] is OV-MZ-6. The assay is described as follows: Inhibition of cell migration in human OV-MZ-6 cells expressing integrin alpha5beta1 assessed as delay in wound gap closure at 1 to 1000 nM measured after 72 hrs by wound scratch assay. The conditions noted are these: dose 1-1000 nM. It counts as functional, cell-based.
The target in assay [5] is T2, Integrin alpha-5/beta-1. The assay is described as follows: Agonist activity at integrin alpha5beta1 in human OV-MZ-6 cells assessed as increase in FAK expression at 1 uM incubated for 24 hrs by Western blot analysis. Type of assay: cell-based. In general terms: In western blotting, separated proteins are transferred to a membrane and probed.
In assay [6] the test system is HN. In words: Effect on cell migration in human HN cells expressing alphaVbeta6 at 1 to 1000 nM measured after 48 hrs by microscopic imaging analysis. It counts as functional, cell-based. The note with it: dose 1-1000 nM.
For assay [7], the target named is T1, Integrin alpha-V/beta-3. The assay is described as follows: Agonist activity at integrin alphaVbeta3 in human M21 cells assessed as increase in p-FAK expression at 1 uM incubated for 24 hrs by Western blot analysis. Type of assay: cell-based.
Assay [8] addresses T1, Integrin alpha-V/beta-3. In words: Agonist activity at integrin alphaVbeta3 in human M21 cells assessed as increase in FAK expression at 1 uM incubated for 24 hrs by Western blot analysis. It counts as cell-based.
In assay [9] the target is T1, Integrin alpha-V/beta-3. The assay is described as follows: Agonist activity at integrin alphaVbeta3 in human M21 cells assessed as increase in p-ERK1/2 expression at 1 uM incubated for 24 hrs by Western blot analysis. It counts as cell-based.
Assay [10] addresses T1, Integrin alpha-V/beta-3. In words: Agonist activity at integrin alphaVbeta3 in human M21 cells assessed as increase in ERK1/2 expression at 1 uM incubated for 24 hrs by Western blot analysis. Type of assay: cell-based.
Assay [11] concerns the target T2, Integrin alpha-5/beta-1. In words: Agonist activity at integrin alpha5beta1 in human OV-MZ-6 cells assessed as increase in p-FAK expression at 1 uM incubated for 24 hrs by Western blot analysis. It counts as cell-based.
Assay [12] deals with T2, Integrin alpha-5/beta-1. In words: Agonist activity at integrin alpha5beta1 in human OV-MZ-6 cells assessed as increase in ERK1/2 expression at 1 uM incubated for 24 hrs by Western blot analysis. It counts as cell-based.
In assay [13] the target is T2, Integrin alpha-5/beta-1. The assay is described as follows: Agonist activity at integrin alpha5beta1 in human OV-MZ-6 cells assessed as increase in p-ERK1/2 expression at 1 uM incubated for 24 hrs by Western blot analysis. Type of assay: cell-based.
Assay [14] has as its target T3, Integrin alpha-V/beta-6. The assay is described as follows: Agonist activity at integrin alphaVbeta6 in human HN cells assessed as increase in FAK expression at 1 to 1000 nM measured within 60 mins by Western blot analysis. Type of assay: cell-based. The conditions noted are these: filed as agonist, dose 1-1000 nM.
Assay [15] deals with T2, Integrin alpha-5/beta-1. The assay is described as follows: Agonist activity at integrin alpha5beta1 in human OV-MZ-6 cells assessed as increase in FAK expression at 1 to 1000 nM measured after 5 to 60 mins by Western blot analysis. Type of assay: cell-based. The conditions noted are these: dose 1-1000 nM, time 5-60 min.
Assay [16] has as its target T3, Integrin alpha-V/beta-6. In words: Agonist activity at integrin alphaVbeta6 in human HN cells assessed as fold increase in p-FAK expression at 1 nM measured within 30 mins by Western blot analysis (reference value: 1). It counts as cell-based. The note with it: filed as agonist.
The target in assay [17] is T3, Integrin alpha-V/beta-6. The assay is described as follows: Agonist activity at integrin alphaVbeta6 in human HN cells assessed as fold increase in p-FAK expression at 1 uM measured within 30 mins by Western blot analysis (reference value: 1). It counts as cell-based. The conditions noted are these: filed as agonist.
In assay [18] the target is T2, Integrin alpha-5/beta-1. In words: Agonist activity at integrin alpha5beta1 in human OV-MZ-6 cells assessed as fold increase in p-FAK expression at 1 nM measured after 5 to 60 mins by Western blot analysis (reference value: 1). The conditions noted are these: filed as agonist, time 5-60 min. Type of assay: cell-based.
Assay [19] deals with HN. In words: Effect on cell migration in human HN cells expressing integrin alphaVbeta6 at 1 to 1000 nM measured after 9 to 24 hrs by wound scratch assay. Type of assay: functional, cell-based. The note with it: dose 1-1000 nM, time 9-24 hrs.
The subject of assay [20] is OV-MZ-6. In words: Inhibition of cell migration in human OV-MZ-6 cells expressing integrin alpha5beta1 assessed as delay in wound gap closure at 1 to 1000 nM measured immediately by wound scratch assay. It counts as functional, cell-based. The note with it: dose 1-1000 nM.
For assay [21], the system named is M21. In words: Inhibition of cell migration in human M21 cells expressing integrin alphaVbeta3 assessed as delay in wound gap closure at 1 nM measured after 9 to 72 hrs by wound scratch assay. Type of assay: functional, cell-based. The note with it: time 9-72 hrs.
Assay [22] concerns the target T1, Integrin alpha-V/beta-3. The assay is described as follows: Agonist activity at integrin alphaVbeta3 in human M21 cells assessed as fold increase in FAK expression at 1 uM incubated for 24 hrs by Western blot analysis. Type of assay: cell-based. The note with it: filed as agonist.
Assay [23] deals with T2, Integrin alpha-5/beta-1. In words: Agonist activity at integrin alpha5beta1 in human OV-MZ-6 cells assessed as fold increase in p-ERK1/2 expression at 1 uM incubated for 24 hrs by Western blot analysis. It counts as cell-based. The note with it: filed as agonist.
The target of assay [24] is T2, Integrin alpha-5/beta-1. In words: Agonist activity at integrin alpha5beta1 in human OV-MZ-6 cells assessed as fold increase in FAK expression at 1 uM incubated for 24 hrs by Western blot analysis (reference value: 1). It counts as cell-based. The conditions noted are these: filed as agonist.
Assay [25] addresses T1, Integrin alpha-V/beta-3. The assay is described as follows: Agonist activity at integrin alphaVbeta3 in human M21 cells assessed as increase in FAK expression at 1 nM incubated for 5 to 60 mins by Western blot analysis. Type of assay: cell-based. The conditions noted are these: filed as agonist, time 5-60 min.
The target of assay [26] is T1, Integrin alpha-V/beta-3. In words: Agonist activity at integrin alphaVbeta3 in human M21 cells assessed as increase in FAK expression at 1 uM incubated for 5 to 60 mins by Western blot analysis. Type of assay: cell-based. The note with it: time 5-60 min.
In assay [27] the target is T1, Integrin alpha-V/beta-3. In words: Agonist activity at integrin alphaVbeta3 in human M21 cells assessed as increase in p-FAK expression at 1 to 1000 nM incubated for 5 to 60 mins by Western blot analysis. Type of assay: cell-based. The note with it: dose 1-1000 nM, time 5-60 min.
Assay [28] has as its target T2, Integrin alpha-5/beta-1. The assay is described as follows: Agonist activity at integrin alpha5beta1 in human OV-MZ-6 cells assessed as increase in FAK expression at 1 nM incubated for 5 to 60 mins by Western blot analysis. It counts as cell-based. The note with it: filed as agonist, time 5-60 min.
In assay [29] the target is T2, Integrin alpha-5/beta-1. In words: Agonist activity at integrin alpha5beta1 in human OV-MZ-6 cells assessed as fold increase in p-FAK expression at 1 nM incubated for 5 mins by Western blot analysis (reference value: 1). It counts as cell-based. The conditions noted are these: filed as agonist.
In assay [30] the target is T2, Integrin alpha-5/beta-1. The assay is described as follows: Agonist activity at integrin alpha5beta1 in human OV-MZ-6 cells assessed as increase in p-FAK expression at 1 nM measured after 60 mins by Western blot analysis. Type of assay: cell-based.
Assay [31] relates to M21. The assay is described as follows: Inhibition of cell migration in human M21 cells expressing integrin alphaVbeta3 assessed as cell coverage at 1 uM measured within 72 hrs by wound scratch assay (reference value: 95 %). It counts as functional. On the set-up: scale not given: the % may be the effect or the level left.
Assay [32] concerns M21. In words: Inhibition of cell adhesion in human M21 cells expressing integrin alphaVbeta3 at 1 uM measured after 48 hrs by microscopic imaging analysis. Type of assay: functional, cell-based.
The test system of assay [33] is M21. The assay is described as follows: Inhibition of cell adhesion in human M21 cells expressing integrin alphaVbeta3 at 1 nM measured after 48 hrs by microscopic imaging analysis. Type of assay: functional, cell-based.

Calls of active or inactive are those of the source. The calls are words filed in the database; no cut-off is given here. Where only a bound is given, the exact number is not on record here.

For the compound `CC(C)C[C@H](NC(=O)[C@H](CO)NC(=O)[C@H](CC(=O)O)NC(=O)[C@H](CC(C)C)NC(=O)[C@H](CC(=O)O)NC(=O)[C@@H](NC(=O)[C@@H](N)CCCNC(=N)N)[C@@H](C)O)C(=O)N[C@@H](CCCNC(=N)N)C(=O)N[C@H](C(=O)O)[C@@H](C)O`, the IC50 at Integrin alpha-V/beta-3 [1] is more than 1000 nM; at Integrin alpha-5/beta-1 [2] it was more than 1000 nM; at Integrin alpha-V/beta-6 [3] it was 29.5 nM.

As for `CC(C)C[C@@H]1NC(=O)[C@H](CC(=O)O)NC(=O)CNC(=O)[C@H](CCCNC(=N)N)NC(=O)[C@H](Cc2ccccc2)NC(=O)[C@H](CCCCN)N(C)C(=O)[C@H]2CCCN2C(=O)[C@H](Cc2ccccc2)NC(=O)[C@H](C)NC1=O`, the inhibition entry in the assay with OV-MZ-6 [4] is “inactive”. Further, the outcome at Integrin alpha-5/beta-1 [5], in the assay on HN [6], at Integrin alpha-V/beta-3 [7], at Integrin alpha-V/beta-3 [8], on Integrin alpha-V/beta-3 [9] and on Integrin alpha-V/beta-3 [10] was inactive. In addition, the outcome at Integrin alpha-5/beta-1 [11], at Integrin alpha-5/beta-1 [12], at Integrin alpha-5/beta-1 [13], at Integrin alpha-5/beta-1 [15] and with HN [19] was inactive. For the same compound, the results for the IC50 at Integrin alpha-V/beta-3 [1] and at Integrin alpha-V/beta-6 [3] were more than 1000 nM and 0.28 nM, respectively. Also, the Activity entry on Integrin alpha-V/beta-6 [14] was “Active; Slight Increase Observed”. Moreover, the fold change (FC) turned out to be 5 on Integrin alpha-V/beta-6 [16], 6 at Integrin alpha-V/beta-6 [17] and 2.9 at Integrin alpha-5/beta-1 [18]. Moreover, the inhibition entry in the assay with OV-MZ-6 [20] is “Active”.

With `C#CCCC(=O)NCCCOc1ccc(C(=O)N[C@H](CC(=O)O)Cc2ccc(OCCCNc3cc(OC)ccn3)cc2)cc1`, the inhibition entry in the assay with OV-MZ-6 [4] and in the assay with M21 [32] was “Active” in each case. Besides, the inhibition result with M21 [21] and with M21 [33] was “inactive” in each case. The fold change (FC) on Integrin alpha-V/beta-3 [22] amounted to 2; at Integrin alpha-5/beta-1 [23], 2.4; on Integrin alpha-5/beta-1 [24], 1.7; on Integrin alpha-5/beta-1 [29] it was 2. For the same compound, the result at Integrin alpha-V/beta-3 [7], at Integrin alpha-V/beta-3 [26], at Integrin alpha-V/beta-3 [27] and on Integrin alpha-5/beta-1 [30] was inactive. Further, at Integrin alpha-V/beta-3 [25], the outcome was Active. Moreover, the Activity result at Integrin alpha-5/beta-1 [28] is on record as “Active; Slight Increase Observed”; with M21 [31] it was 80%.
